Experimental data reported in patent US7935525B2, “Inhibition of ATF2 activity to treat cancer” (Mount Sinai School of Medicine, priority 2001, dated 2011).
Entries after “also recorded” stand apart in the source; their conditions may differ. No end group written: not given here.

How the values were obtained:
[1] = biological target: p38 (Homo sapiens, UniProt Q16539); assay: In vitro phosphorylation of the peptide; assay type: biochemical
[2] = test system: ATF2 target sequence (c-Jun promoter motif TGACACTA); assay: Electrophoretic mobility shift assay with labeled AP1 oligonucleotide; assay type: binding, mouse; settings: control vs peptide-expressing SW1 cells
Method: Electrophoretic mobility shift assays were performed as described. (Ivanov and Ronada, J Biol Chem 1999; 274(20):14079-89). GST binding assays were performed with GST-peptide II as described (Adler et al., Proc Natl Acad Sci USA 1995; 92 10585-9). SW1 cells expressing control vector or peptide II were subjected to FACS analysis following their incubation with antibodies to the cell surface receptor of FAS as described above.

[3] = test system: AP1 complex; assay: Transcriptional activity mediated from AP1 target sequences; assay type: cell-based; settings: peptide-expressing melanoma cells
[4] = test system: LU1205 tumor cells; assay: Growth of transplanted LU1205 tumors in mice; assay type: in vivo
Method: Tumor growth and metastasis evaluation in vivo. Cell lines established in culture to constitutively or inducibly express the peptide were injected into mice subcutaneously (S.C.). LU1205, FEMX and SW-1 cells that expressed control or peptide II were trypsinized, resuspended in PBS and injected SC (1×10^6) into 6-7 week old mice in the lower flank. When the tumor reached the size of about 50 mm^3, 5 μM of SB203580 was injected into four areas of the LU1205 tumors every 4 days during a 2-week period. For FEMX tumors UCN-01 (2.5 mg/kg) was fed by gavage twice a day, three times per week for a total of 2 weeks. Tumor growth was monitored every two days. SW-1 cells expressing peptide II under tet-inducible vector were injected SC (1×10^6). When tumors reached a size of about 50 mm^3, the mice received doxycycline in their drinking water ([…]) for a total of 2-4 weeks. At the end of the experiment, the tumors were excised and weighed. The lungs and other organs were subjected to histopathological examination to detect metastatic lesions.

[5] = test system: Fas protein; assay: Western blot of overall Fas protein in melanoma cells; assay type: cell-based; settings: peptide-expressing melanoma cells
[6] = test system: FEMX melanoma cell line; assay: Colony forming efficiency (CFE) resistance assay; assay type: cell-based, human
Method: (§1) Radiation resistance. Cells (500 or 1500 per well) were plated in triplicates on 6 well plates, 24 h before treatment (Ronai et al., Oncogene 1998; 16:523-531). In all cases, plating efficiency was pre-determined so that number of cell plated was normalized respectively. Colonies (greater than 50 cells per clone) were stained with crystal violet solution (3% in 10% methanol and PBS), 14 days After treatment. % of CFE in each treatment group was calculated based on total CFE formed in the respective controls (100%).

[7] = test system: LU1205 melanoma cell line; assay: Colony forming efficiency (CFE) resistance assay; assay type: cell-based, human
Method: as §1

[8] = test system: Fas promoter; assay: Fas promoter activity (-460 Fas promoter region); assay type: cell-based, human; settings: peptide-expressing LU1205
[9] = test system: ATF2/c-Jun transcriptional activity; assay: Jun2-Luciferase reporter in SW1 clones; assay type: cell-based, mouse
Method: Transient transfection and transcriptional analysis. Mouse melanoma tumors grown in culture were transfected with control vector or peptide II expressing luciferase or β-galactosidase constructs (Bhoumik et al., Clin. Cancer Res. 2001; 7(2):331-42). Transient transfection of different reporter constructs (0.5 cg) with expression vectors and pCMV-Cgal (0.25 Cg) into 5×10^5 melanoma cells was performed using Lipofectamine™ (Life Technologies-BRL). Transfection of the Jun2-luciferase construct permitted us to monitor activity of ATF2 and c-Jun. Jun2-Luc and TRE-Luc constructs were previously described (van Dam H., et al., EMBO J. 1993; 12:479-487; and van Dam H., et al., EMBO J. 1995; 14:1798-1811). Luciferase activity was determined using the Luciferase assay system (Promega®, Madison, Wis.) and normalized on the basis of β-galactosidase (β-Gal) levels in transfected cells. Proteins were prepared for β-Gal and Luciferase analysis at the selected time points after transfection.

[10] = test system: 293T human kidney embryonic cells; assay: Apoptosis by FACS (hypodiploid fraction); assay type: cell-based; settings: peptide-expressing 293T; normal growth conditions
Method: [Worded in the source for another cell line; this cell line is reported under the same test.] (§2) Treatment and apoptosis studies of stably transfected melanoma cells. Cells were exposed to UVC at 75 J/m^2 as previously described (Ronai, Z., et al., Oncogene 1998; 16:523-531). SB203580 (1-10 μM) (Calbiochem®, San Diego, Calif.), NCS (50-100 ng/ml) and mitomycin C (MMC) (0.2-1 μM) were used to treat melanoma cells. Flow cytometric analysis was performed on a FACSCalibur™ flow cytometer (Becton Dickinson) using CellQuest™ software as described previously (Nicoletti et al., J. Immunol. Methods 1991; 139:271-279). Cells were pelleted and resuspended in 0.5 ml of hypotonic buffer with 0.1% Triton X-100 containing PI (40 μg/ml) and DNase-free RNase A (1 mg/ml). Cells were incubated at 37° C. for 30 min and analyzed on a FACSCalibur™ flow cytometer (Becton Dickinson). The percentage of cells to the left of the diploid G0/1 peak, characteristic of hypodiploid cells that have lost DNA, was defined as the percentage of apoptotic cells. Analysis was performed with light scatter gating. Surface expression of Fas was determined using anti-Fas-PE antibody (PharMingen® CA) and flow cytometric analysis. Cell surface expression is measured as mean fluorescence intensity (MFI).

[11] = test system: human melanocytes (FOM71); assay: Apoptosis by FACS (hypodiploid fraction); assay type: cell-based; settings: transient peptide expression; UV 75 J/m^2; 36 h
Method: as §2

[12] = test system: AP1 complex; settings: previous studies; cited from earlier work
[13] = test system: ATF2 transcriptional activity; assay: Jun2 promoter reporter in Jun null fibroblasts; assay type: cell-based
[14] = test system: Fas; assay: Cell surface expression of Fas by FACS; assay type: cell-based, human; settings: peptide-expressing LU1205; control 122
Method: as §2

[15] = test system: Jun2-Luc; assay: Jun2-Luc reporter in ATF2 null cells; assay type: cell-based

Sequence of p38 (Q16539 whole entry): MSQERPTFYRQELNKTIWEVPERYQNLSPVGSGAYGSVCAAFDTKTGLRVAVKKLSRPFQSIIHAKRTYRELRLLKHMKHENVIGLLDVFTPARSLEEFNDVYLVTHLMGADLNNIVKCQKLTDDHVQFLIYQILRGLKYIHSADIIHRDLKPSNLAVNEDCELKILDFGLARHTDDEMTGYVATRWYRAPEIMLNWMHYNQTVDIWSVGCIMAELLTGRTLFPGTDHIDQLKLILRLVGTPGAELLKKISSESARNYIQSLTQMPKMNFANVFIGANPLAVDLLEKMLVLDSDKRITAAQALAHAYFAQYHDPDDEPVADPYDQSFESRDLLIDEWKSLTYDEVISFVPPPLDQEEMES

peptide II: N-terminal polypeptide fragment of ATF2, amino acid residues 50-100, expressed from pcDNA3 with HA-penetratin tag (EMTLKFGPARNDSVIVADQTPTPTRFLKNCEEVGLFNELASPFENEFKKAS; also: HA-penetratin tag, position not given here; UniProt P15336 50-100, looked up, fragment)
phosphorylation of the peptide by p38 [1]: Neither JNK nor p38 was found capable of phosphorylating
binding of nuclear extracts to the labeled AP1 oligonucleotide [2]: No significant changes
transcriptional activities mediated by AP1 target sequences [3]: lower
inhibition of tumor growth ([4]; combination: peptide-expressing LU1205 + SB203580): significant inhibition of tumor growth; also recorded: more effective
tumor cell growth ([4]; single agent: inhibitor injected into tumor, or peptide expressed in tumor cells): grew much more slowly
overall level of Fas protein [5]: increase in the overall level of Fas protein
decrease in the fraction of CFE ([6]; peptide-expressing FEMX vs FEMX neo, 1 µM MMC, 14 days): ≤ 10 fold
decrease in % of CFE ([6]; peptide-expressing FEMX vs neo control, UV-C 9-36 J/m^2, colonies at 14 days): up to 10 fold
effects on the sensitivity to MMC (CFE) ([7]; peptide-expressing LU1205, MMC): much less pronounced effects
decrease in the % of CFE ([7]; peptide-expressing LU1205 vs neo control, UV-C 9-36 J/m^2, colonies at 14 days): ≤ 3 fold
sensitivity to NCS (CFE) ([7]; peptide-expressing melanoma cells, NCS): did not reveal substantial differences
Fas promoter mediated transcription [8]: increase in Fas-mediated transcription
decrease in basal levels of ATF2 transcriptional activities ([9]; SW1 clones constitutively expressing peptide): 5 fold
ATF2 transcriptional activities in response to UV-treatment ([9]; SW1 clones, UV): decrease
increase in the degree of basal apoptosis [10]: 5 fold
sensitivity to undergo UV-induced apoptosis [11]: did not cause a significant increase
inhibition of transcriptional activity mediated from the AP1 complex [12]: 3 fold
transcriptional activity mediated from the Jun2 promoter [13]: marked inhibition
cell surface expression of Fas, mean fluorescence intensity [14]: 186
Jun2-Luc activities [15]: did not affect
